# The OligoGym collection
# Bases are written 5' to 3'; sugars and linkages follow in the same order, as letters with counts (s phosphorothioate, o phosphodiester; PS: all linkages phosphorothioate). The collection does not say whether C is 5-methylated. l = locked nucleic acid (LNA); d = 2'-deoxy (DNA)
# Target: Tau
# Assay: rat primary cortical neurons, FLIPR, 25 uM ASO
row,Sequence,calcium oscillation score
1,"CCAGCTAGTGGTGCCACCTG (sugars l3 d14 l3, PS)",1.84 % of control
2,"CATGTCGATGCTGCC (sugars l3 d9 l3, PS)",89.5 % of control
3,"TTTCTCTCTTAACTTTATTT (sugars l4 d12 l4, PS)",90.4 % of control
4,"GCCCCACTTTTAATTAA (sugars l2 d11 l4, PS)",86.2 % of control
5,"GCCACCTCCTGGTTTA (sugars l3 d10 l3, PS)",86.1 % of control
6,"ATCACTTCGAACTCCT (sugars l3 d10 l3, PS)",159 % of control
7,"CCACCATACTTGACTTCT (sugars l2 d14 l2, PS)",76.8 % of control
8,"TTACTGATCATAATCCT (sugars l4 d10 l3, PS)",67.3 % of control
9,"GCAATAGCAAACAGG (sugars l3 d9 l3, PS)",40.8 % of control
10,"TCATCGCTTCCAGTCC (sugars l3 d10 l3, PS)",19.2 % of control
11,"GGTGATATTGTCCAGGGACC (sugars l3 d14 l3, PS)",0 % of control
12,"CTTTTCTCAATGTAACC (sugars l4 d10 l3, PS)",65.9 % of control
13,"GTCACCACTTTAATCT (sugars l4 d9 l3, PS)",85.3 % of control
14,"GGACGTGGGTGATATTGTCC (sugars l3 d14 l3, PS)",0 % of control
15,"CACAAGTCCTTACAAA (sugars l3 d10 l3, PS)",194 % of control
16,"GAACTGGTTAGCCCTA (sugars l3 d10 l3, PS)",79.9 % of control
17,"CAACAATCCAACCACTAAA (sugars l4 d11 l4, PS)",89.8 % of control
18,"AACCAACTCAACATTACCCT (sugars l2 d16 l2, PS)",86.7 % of control
19,"TCCCGTCTTTGCTTTTACTG (sugars l3 d14 l3, PS)",3.7 % of control
20,"GTCCCGAGCCAAAG (sugars l3 d8 l3, PS)",0 % of control
21,"CCTTACCACTTTCAGG (sugars l3 d10 l3, PS)",111 % of control
22,"AAACTCATTTACCAATTAT (sugars l4 d11 l4, PS)",70.7 % of control

row,Sequence,calcium oscillation score
1,"CAATCCTAAACAATGCC (sugars l2 d11 l4, PS)",41.8 % of control
2,"CTACAAACCAGTTACCA (sugars l3 d11 l3, PS)",69.9 % of control
3,"TAGACTATTTGCACACTGCC (sugars l3 d14 l3, PS)",51.9 % of control
4,"TTCTTTTTTTTTCCACACTC (sugars l3 d15 l2, PS)",27.4 % of control
5,"ATAAATTTGAACCCCT (sugars l3 d9 l4, PS)",49.7 % of control
6,"TCCACAAACCAACTCAAC (sugars l4 d12 l2, PS)",95.9 % of control
7,"CTTTTGAACCCATTCCAC (sugars l3 d13 l2, PS)",110 % of control
8,"CCCGAGCCAAAGCCGA (sugars l3 d10 l3, PS)",50.6 % of control
9,"AATAAGAAAGGAACGC (sugars l5 d7 l4, PS)",121 % of control
10,"CCATCCTAAGTCAACCA (sugars l2 d13 l2, PS)",62.8 % of control
11,"GATACCCTTCCTCAGA (sugars l2 d12 l2, PS)",30.9 % of control
12,"CCTCGTCAGCTAGCGT (sugars l3 d10 l3, PS)",76 % of control
13,"TATTTCCAAATTCACTTTTA (sugars llldldddddddddldldll, PS)",108 % of control
14,"TTTAATTCACACAACAAACT (sugars l4 d12 l4, PS)",89.1 % of control
15,"CTAATGAGCCACACTTGGAG (sugars l3 d14 l3, PS)",46.5 % of control
16,"TTTATGATGGATGTTGCCTA (sugars l3 d14 l3, PS)",6.64 % of control
17,"GAACTATTGATAAA (sugars l3 d8 l3, PS)",85.7 % of control
18,"GAGCACTAACTCTAAGTAGA (sugars l3 d14 l3, PS)",23.8 % of control
19,"CTCAGCTAAGACCCTCAGGT (sugars l3 d14 l3, PS)",31.2 % of control
20,"CCAAACTTTTACTCTGA (sugars l4 d10 l3, PS)",44.5 % of control
21,"GGGACGTGGGTGATATTGTC (sugars l3 d14 l3, PS)",0 % of control
22,"TTCTCAGCACACCATTA (sugars l3 d12 l2, PS)",60.1 % of control

row,Sequence,calcium oscillation score
1,"CTTTATTTCCAAATTCACTT (sugars l3 d11 l1 d2 l3, PS)",112 % of control
2,"TTGTAGACTATTTG (sugars l3 d8 l3, PS)",63.3 % of control
3,"CCCTCCCTTTAATGCCAGGC (sugars l3 d14 l3, PS)",6.04 % of control
4,"AGCCACACTTGGAGGTCACC (sugars l3 d14 l3, PS)",0 % of control
5,"ATTCTCAGCACACCATT (sugars l4 d11 l2, PS)",41.3 % of control
6,"ATGACATTTTAAACCCC (sugars l3 d11 l3, PS)",54.9 % of control
7,"TTCTCTCTTAACTTTATTTT (sugars l4 d12 l4, PS)",93 % of control
8,"CTTTTTCCATCTTACTAATA (sugars l3 d14 l3, PS)",46.5 % of control
9,"CAACTCAACATTACCCTTAA (sugars l3 d14 l3, PS)",68 % of control
10,"CAGCGTGATCTTCCAT (sugars l3 d10 l3, PS)",13.4 % of control
11,"TTGAAGTCCCGAGCC (sugars l3 d9 l3, PS)",0 % of control
12,"CGTCCCAGCGTGATCTTCCA (sugars l5 d11 l4, PS)",36.2 % of control
13,"TTTTACCAATTTGCCTA (sugars l2 d11 l4, PS)",46.2 % of control
14,"TTTTCTCTCTTAACTTTATT (sugars l4 d12 l4, PS)",89 % of control
15,"AAAGCAGGTTAAGTGATTAA (sugars l3 d14 l3, PS)",2.59 % of control
16,"TCCTGGCCATCTTATGCTGA (sugars l3 d14 l3, PS)",31.2 % of control
17,"AATTTAGTCACCATCAC (sugars l4 d9 l4, PS)",79.1 % of control
18,"AGGTCAACTGGTTT (sugars l3 d8 l3, PS)",117 % of control
19,"CATCAATTTGGAAAGATGAA (sugars l3 d14 l3, PS)",62.5 % of control
20,"CTTTATTTCCAAATTCACTT (sugars l3 d1 l1 d11 l4, PS)",129 % of control
21,"CTCTCAAAAATCAACGC (sugars l4 d9 l4, PS)",66.3 % of control
22,"CCACCCATCAATTTGGAAAG (sugars l3 d14 l3, PS)",58.1 % of control

row,Sequence,calcium oscillation score
1,"AATAAGAAAGGAACGC (sugars l4 d8 l4, PS)",5.95 % of control
2,"TATTTCCAAATTCACTTTTA (sugars llldlddddddddddldlll, PS)",129 % of control
3,"CTTACCATCCTATCTTC (sugars l3 d11 l3, PS)",87 % of control
4,"TACCCATCTTAATTCATTTA (sugars l3 d14 l3, PS)",111 % of control
5,"TGATGCAGGAGTTGTA (sugars l3 d10 l3, PS)",7.62 % of control
6,"TTCCTAATTCCCAAATTCC (sugars l3 d14 l2, PS)",62.1 % of control
7,"TCTGTCTTGGCTTTG (sugars l3 d9 l3, PS)",40.6 % of control
8,"TCTCGCGGAAGGTC (sugars l3 d8 l3, PS)",75.7 % of control
9,"TCTAATTTAGTCACCAT (sugars l4 d10 l3, PS)",96 % of control
10,"TGATGGATGTTGCCTAATGA (sugars l3 d14 l3, PS)",0 % of control
11,"TTTATTTCCAAATTCACTTT (sugars l3 d14 l3, PS)",≥ 200 % of control
12,"AGTCACTCTGGTGA (sugars l3 d8 l3, PS)",97.1 % of control
13,"ACCCCACATTTGCAAAC (sugars l3 d12 l2, PS)",63.5 % of control
14,"CGGCGCAGGCGCGAGC (sugars l3 d10 l3, PS)",2.71 % of control
15,"ACTGGTTAGCCCTAAA (sugars l3 d10 l3, PS)",3.83 % of control
16,"CCCTTAGACATAACACA (sugars l3 d12 l2, PS)",65.5 % of control
17,"AAGTCCCGAGCCAAAG (sugars l3 d10 l3, PS)",91.8 % of control
18,"GATTAACCAATTAACC (sugars l3 d10 l3, PS)",≥ 200 % of control
19,"CGCAGGCGCGAGCAGC (sugars l3 d10 l3, PS)",20.7 % of control
20,"TAGCCCTAAAGTCC (sugars l3 d8 l3, PS)",87.6 % of control
21,"AACTTACCAGTTTTTCA (sugars l4 d9 l4, PS)",62.3 % of control
22,"GGAGTGCTCTTAGCATCAGA (sugars l3 d14 l3, PS)",14.8 % of control

row,Sequence,calcium oscillation score
1,"CAGTAACATCCATTTC (sugars l4 d8 l4, PS)",87.6 % of control
2,"CCTTTGTAATTCCTTCTC (sugars l3 d13 l2, PS)",53.4 % of control
3,"GTCTTGGCTTTGGCGT (sugars l3 d10 l3, PS)",20.9 % of control
4,"ATTTCCAAATTCACTT (sugars l3 d10 l3, PS)",111 % of control
5,"CCTCTAGTTTTACCTAA (sugars l2 d11 l4, PS)",72.9 % of control
6,"CCCCATTTATCCTTCATG (sugars l2 d14 l2, PS)",49.4 % of control
7,"TTACACCATCCAAGTCA (sugars l4 d11 l2, PS)",75.5 % of control
8,"TTATTTCCAAATTCACTTTT (sugars l2 d2 l2 d10 l4, PS)",123 % of control
9,"GTCTTTATTAACACTCC (sugars l4 d11 l2, PS)",63.3 % of control
10,"ACTGTTACACATTTATC (sugars l4 d9 l4, PS)",79.8 % of control
11,"TGCAAACACTCCCTCT (sugars l2 d10 l4, PS)",35.4 % of control
12,"GCCCACCCATCAATTTGGAA (sugars l3 d14 l3, PS)",1.3 % of control
13,"GCAACAATCCAACCAC (sugars l2 d10 l4, PS)",76.3 % of control
14,"CCCAGCACACAGGCAGCCAC (sugars l3 d14 l3, PS)",24.2 % of control
15,"ATTAACCCTTGATCATATTT (sugars l3 d14 l3, PS)",40.5 % of control
16,"TAACCAATTAACCGAACTGC (sugars l3 d14 l3, PS)",125 % of control
17,"CCGAACTGCGAGGAGC (sugars l3 d10 l3, PS)",5.43 % of control
18,"TACACCATCCAAGTCAATGC (sugars l3 d14 l3, PS)",6.04 % of control
19,"TCCCTTAATTTCACC (sugars l3 d9 l3, PS)",80.5 % of control
20,"CACCTCCTATATTCTCAG (sugars l2 d12 l4, PS)",75.4 % of control
21,"GCCACACTTGGAGGTCACCT (sugars l3 d14 l3, PS)",4.52 % of control
